“Also recorded” adds a separate entry of the source.
Tests used:
[1] = system: HepG2 cells; assay: Confocal microscopy: lipid droplets in oleate induced HepG2 cells; type: cell-based; design: key to Reduction in Lipid Droplets: + = slight or in insignificant; ++ = Moderate; +++ and ++++ = active; +++ and ++++ = active; +++++ = very active; conditions: for Reduction in Lipid Droplets: oleate induced HepG2 cells, score
Description: (§1) To select the compounds capable of inhibiting the ubiquitination of ATGL by COP1 by targeting the VP motif, confocal microscopy was performed with the provided molecules. If the compound was effective in inhibiting the interaction, there would be a reduction in the number of fat droplets in the cells after treatment. […] With this rationale in mind, HepG2 cells were induced to accumulate lipid droplets after treatment with 250 µM of oleate and 10 μM of the specific compounds were added. The potential of the compounds to bring about a reduction in the number of fat droplets was then checked by comparison with oleate induced cells by counting number of droplets of approximately 20 cells from each treatment and calculating the average number of lipid droplets of each cell. The selected compounds were then subjected to dose dependent treatments and the ones which could maintain its potency to reduce fat droplets at lower doses were then selected for western blot analysis. The compound which could reduce the number of fat droplets in the cells are expected to raise the levels of ATGL since they are likely to deter COP1 from ubiquitinating ATGL. This increase will be visible only in the protein level and gene expression is likely to remain unchanged since ubiquitination is a […] modification. Thus, western blot was performed to check ATGL levels in the cells with the selected molecules.
HepG2 cells were plated in confocal dishes (SPL, Genetix Biotech Asia Pvt. Ltd.). The cells were allowed to adhere and divide for 16 hours. 10 μM for initial screening and 10 nM, 20 nM, 50 nM, 100 nM, 200 nM, 500 nM, 1 μM and 5 μM for dose dependent assays of the compounds 9 and 107 were dissolved in DMSO and added to the cells. 250 μM of oleate was used for induction. BSA (Sigma Aldrich) was used as a negative control. Post 24 hours of treatment, media was decanted from the cells and washed with 1×PBS solution to remove any remnant. 200 μl of staining solution containing 200 ng/ml BODIPY (Invitrogen) and 25 µg/ml HOECKST342 (Invitrogen) were added to the cells and incubated at 37° C. for 30 minutes under dark conditions. Cells were washed 3 times with 1×PBS to remove excess stain. FLUOVIEW FV10i (Olympus) was used to visualise the cells.

[2] = system: ATGL; assay: Western blot of ATGL level in HepG2 cells; type: cell-based; design: key to Increase in ATGL level: + = slight or in insignificant; ++ = Moderate; +++ and ++++ = active; +++ and ++++ = active; +++++ = very active; conditions: western blot; for Increase in ATGL level: HepG2 cells, score; for ATGL level in HepG2 cells: 24 hours, 10 μM screening or 50 nM-5 μM dose dependent
Description: as §1
HepG2 cells were treated with the compounds 9, 10, 11, 17, 18, 23, 24, 115, 123, 127, 139,107, 171, 179, 73, 187, 211, 215, 219, 223, 232, 238, 241, 244, 258, 299, 308, and 333a, (10 μM for initial screening and 50 nM, 100 nM, 200 nM, 500 nM, 1 μM and 5 μM for dose dependent assays) for 24 hours. After removing media from the cells, the wells were washed with 1×PBS twice to remove any remnant media. Cells were then lysed in lysis buffer containing 50 mM Tris-HCl (pH 7.4), 100 mM NaCl, 1 mM EDTA, 1 mM EGTA, 1% Triton X-100 and protease inhibitor cocktail (Millipore, Billierica, MA, USA). Following centrifugation at 20,000 g for 20 minutes, the protein solution was extracted from the cells. Protein was estimated using Bradford assay. Bradford's reagent (BioRad) was diluted in 1:4 ratio in double distilled water. 2 μl of protein sample was added to 100 μl of the reagent and absorbance was measured at 595 nm. […] of protein was diluted in lysis buffer. 1× loading buffer diluted from 5× stock containing 250 mM Tris-HCl (pH 6.8), 10% SDS, 50% glycerol, 0.1% bromophenol Blue and 10% β-mercaptoethanol was added. The protein samples were then heated at 95° C. for 10 minutes, cooled and centrifuged at 12,000 g for 2 minutes prior to loading.
For western blotting, the proteins were resolved in 10% SDS PAGE (discontinuous buffer system). 1× running buffer containing SDS, Tris Base and Glycine was used to run the gel at 80V for approximately 2 hours. Transfer was done using PVDF membrane (Millipore) having pore size of 0.45 μm. 1× transfer buffer containing Tris-Base, Glycine and 20% methanol was used for wet transfer. Transfer was done at 90V for 3 hours. Following transfer, the PVDF membrane containing the proteins were washed in 1×PBST comprising of 1×PBS and 1% Tween 20 (Sigma Aldrich). The membrane was then incubated for 1 hour at room temperature in 5% skim milk powder to block the non-specific sites. Following multiple washes with 1×PBST to wash away any remaining blocking buffer, the required primary antibody (COP1 [Bethyl Laboraties], ATGL [Cell Signalling Technology] or Actin[Cell Signalling Technology]) prepared with 1×PBST, 1% Bovine Serum Albumin and 0.04% Sodium Azide was added to the membrane and incubated overnight at 4° C. The next day, the membrane was again washed multiple times with 1×PBST to remove any unbound primary antibody. The membrane was then incubated with goat anti-rabbit secondary antibody (Genei) for 1 hour at room temperature and washed again for multiple times with 1×PBST. […]

SMILES	Reduction in Lipid Droplets [1]	Increase in ATGL level [2]	Number of lipid droplets ([1]; HepG2 cells, 250 μM oleate induction)	ATGL level in HepG2 cells [2]
COCCn1cnc2ccc(NC(=O)Nc3ccccc3)cc2c1=O [Compound 5, 1-(3-(2-methoxyethyl)-4-oxo-3,4-dihydroquinazolin-6-yl)-3-phenylurea]	++	++	–	–
COCCn1cnc2ccc(NC(=O)Nc3cccc(OC)c3)cc2c1=O [Compound 6, 1-(3-(2-methoxyethyl)-4-oxo-3,4-dihydroquinazolin-6-yl)-3-(3-methoxyphenyl)urea]	++++	++++	reduction of lipid droplet	increase in ATGL level
COCCn1cnc2ccc(NC(=O)Nc3cccc([N+](=O)[O-])c3)cc2c1=O [Compound 8, 1-(3-(2-methoxyethyl)-4-oxo-3,4-dihydroquinazolin-6-yl)-3-(3-nitrophenyl)urea]	++	+	–	–
COCCn1cnc2ccc(NC(=O)Nc3cccc(C(C)O)c3)cc2c1=O (stereo not shown) [Compound 11, 1-(3-(1-hydroxyethyl)phenyl)-3-(3-(2-methoxyethyl)-4-oxo-3,4-dihydroquinazolin-6-yl)urea]	+	+	–	increased ATGL level
COCCn1cnc2ccc(NC(=O)Nc3cc(C(=O)OC)ccc3OC)cc2c1=O [Compound 12, methyl 4-methoxy-3-(3-(3-(2-methoxyethyl)-4-oxo-3,4-dihydroquinazolin-6-yl)ureido)benzoate]	++	+++	–	–
CCc1cccc(NC(=O)Nc2ccc3ncn(CCOC)c(=O)c3c2)c1 [Compound 13, 1-(3-ethylphenyl)-3-(3-(2-methoxyethyl)-4-oxo-3,4-dihydroquinazolin-6-yl)urea]	+	+	–	–
COCCn1cnc2ccc(NC(=O)Nc3cccc(C(=O)c4ccccc4)c3)cc2c1=O [Compound 14, 1-(3-benzoylphenyl)-3-(3-(2-methoxyethyl)-4-oxo-3,4-dihydroquinazolin-6-yl)urea]	+	+	–	–
COCCn1cnc2ccc(NC(=O)Nc3cccc(C(=O)NC4CCCCC4)c3)cc2c1=O [Compound 15, N-cyclohexyl-3-(3-(3-(2-methoxyethyl)-4-oxo-3,4-dihydroquinazolin-6-yl)ureido)benzamide]	+	++++	–	–
COCCn1cnc2ccc(NC(=O)Nc3cccc(C(=O)NC(C(=O)OC)C(C)C)c3)cc2c1=O (stereo not shown) [Compound 16, methyl 2-(3-(3-(3-(2-methoxyethyl)-4-oxo-3,4-dihydroquinazolin-6-yl)ureido)benzamido)-3-methylbutanoate]	+++	++++	–	–
COCCn1cnc2ccc(NC(=O)Nc3cccc(C(=O)N(C)C)c3)cc2c1=O [Compound 17, 3-(3-(3-(2-methoxyethyl)-4-oxo-3,4-dihydroquinazolin-6-yl)ureido)-N,N-dimethylbenzamide]	+++	+++	–	increased ATGL level; also recorded: ability to increase ATGL level
COCCn1cnc2ccc(NC(=O)Nc3cccc(C(=O)N4CCCC4)c3)cc2c1=O [Compound 18, 1-(3-(2-methoxyethyl)-4-oxo-3,4-dihydroquinazolin-6-yl)-3-(3-(pyrrolidine-1-carbonyl)phenyl)urea]	+	++++	–	increased ATGL level; also recorded: ability to increase ATGL level
COCCn1cnc2ccc(NC(=O)Nc3cccc(C(=O)N4CCOCC4)c3)cc2c1=O [Compound 19, 1-(3-(2-methoxyethyl)-4-oxo-3,4-dihydroquinazolin-6-yl)-3-(3-(morpholine-4-carbonyl)phenyl)urea]	++	+	–	ability to increase ATGL level
COCCn1cnc2ccc(NC(=O)Nc3ccc(C(=O)N4CCCC4)cc3)cc2c1=O [Compound 20, 1-(3-(2-methoxyethyl)-4-oxo-3,4-dihydroquinazolin-6-yl)-3-(4-(pyrrolidine-1-carbonyl)phenyl)urea]	++	++	–	ability to increase ATGL level
COCCn1cnc2ccc(NC(=O)Nc3cccc(-c4nc5ccccc5o4)c3)cc2c1=O [Compound 21, 1-(3-(benzo[d]oxazol-2-yl)phenyl)-3-(3-(2-methoxyethyl)-4-oxo-3,4-dihydroquinazolin-6-yl)urea]	+	+	–	–
COCCn1cnc2ccc(NC(=O)Nc3cccc(NC(C)=O)c3)cc2c1=O [Compound 22, N-(3-(3-(3-(2-methoxyethyl)-4-oxo-3,4-dihydroquinazolin-6-yl)ureido)phenyl)acetamide]	+	+	–	–
COCCn1cnc2ccc(NC(=O)Nc3cccc(N(C)C(C)=O)c3)cc2c1=O [Compound 23, N-(3-(3-(3-(2-methoxyethyl)-4-oxo-3,4-dihydroquinazolin-6-yl)ureido)phenyl)-N-methylacetamide]	++	++++	–	increased ATGL level
COCCn1cnc2ccc(NC(=O)Nc3cccc(N(Cc4ccccc4)C(C)=O)c3)cc2c1=O [Compound 24, N-benzyl-N-(3-(3-(3-(2-methoxyethyl)-4-oxo-3,4-dihydroquinazolin-6-yl)ureido)phenyl)acetamide]	+	++++	–	increased ATGL level
COCCn1cnc2ccc(NC(=O)Nc3ccc(F)cc3)cc2c1=O [Compound 35, 1-(4-fluorophenyl)-3-(3-(2-methoxyethyl)-4-oxo-3,4-dihydroquinazolin-6-yl)urea]	+	+	–	–
COCCn1cnc2ccc(NC(=O)Nc3ccc(F)c(Cl)c3)cc2c1=O [Compound 36, 1-(3-chloro-4-fluorophenyl)-3-(3-(2-methoxyethyl)-4-oxo-3,4-dihydroquinazolin-6-yl)urea]	+	+++	–	–
COCCn1cnc2ccc(NC(=O)Nc3ccc(OC(F)(F)F)cc3)cc2c1=O [Compound 37, 1-(3-(2-methoxyethyl)-4-oxo-3,4-dihydroquinazolin-6-yl)-3-(4-(trifluoromethoxy)phenyl)urea]	+	+	–	–
